# Experimental data taken from patent publication US20110269763A1, “CRTH2 receptor ligands for medicinal uses” (7TM Pharma A/S, priority 2004, published 2011).
# Legend:
# human CRTH2 [1] = target: T1, human CRTH2 (Homo sapiens, UniProt Q9Y5Y4, V204A); test: Functional antagonist BRET assay on HEK293 cells stably expressing human CRTH2-Rluc and GFP2-β-arr2; assay type: cell-based; parameters: expressed in transfected cells; details: BRET, antagonist incubated 15 minutes prior to agonist; read-out: Antag. IC50
# T1 sequence (Q9Y5Y4 1-395 V204A): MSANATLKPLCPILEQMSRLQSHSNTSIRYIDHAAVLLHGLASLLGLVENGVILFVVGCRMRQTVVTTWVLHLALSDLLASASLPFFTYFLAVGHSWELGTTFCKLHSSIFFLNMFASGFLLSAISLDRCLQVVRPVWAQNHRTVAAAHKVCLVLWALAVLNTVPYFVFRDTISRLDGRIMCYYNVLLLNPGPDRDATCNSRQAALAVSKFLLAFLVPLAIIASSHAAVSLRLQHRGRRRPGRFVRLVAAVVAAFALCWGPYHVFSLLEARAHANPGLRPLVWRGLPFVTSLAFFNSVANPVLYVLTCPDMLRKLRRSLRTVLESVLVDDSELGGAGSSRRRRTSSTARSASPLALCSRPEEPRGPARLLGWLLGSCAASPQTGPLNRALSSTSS
# Source text: (§1) Generation/origin of the cDNA Constructs. The coding sequence of the human CRTH2 receptor (genbank accession no NM_004778) was amplified by PCR from a human hippocampus cDNA library and inserted into the pcDNA3.1(+) expression vector (invitrogen) via 5′ HindIII and 3′ EcoRI. To generate a CRTH2-Renilla luciferase (CRTH2-Rluc) fusion protein, the CRTH2 coding sequence without a STOP codon and Rluc were amplified, fused in frame by PCR and subcloned into the pcDNA3.1(+)Zeo expression vector (invitrogen). Human β-arrestin2 (β-arr2) N-terminally tagged with GFP^2 (βarr2-GFP^2) and Renilla luciferase were purchased from BioSignal Packard Inc, (Montreal, Canada). The sequence identity of the construct was verified by restriction endonuclease digests and sequencing in both directions on an ABI Prism (Applied Biosystems, Foster City, Calif.).
# (§2) Cell Culture and Transfection. COS-7 cells were grown in Dulbecco's modified Eagle's medium (DMEM) 1885 supplemented with 10% fetal bovine serum, 100 units/ml penicillin, […] streptomycin, and kept at 37° C. in a 10% CO2 atmosphere. HEK293 cells were maintained in Minimum Essential medium (MEM) supplemented with 10% (v/v) heat inactivated fetal calf serum (HIFCS), 2 mM Glutamax™-I, 1% non essential amino acids (NEAA), 1% sodium pyruvate and 10 μg/ml gentamicin. For binding experiments, COS7 cells were transiently transfected with the CRTH2 receptor using a calcium phosphate-DNA coprecipitation method with the addition of chloroquine (as described by Holst et al., 2001↓). To perform the functional Bioluminescence Resonance Energy Transfer (BRET) assays, a HEK293 cell clone stably expressing βarr2-GFP^2 and CRTH2-Rluc was generated (CRTH2-HEK293 cells).
# BRET assay. Functional BRET assays were performed on HEK293 cells stably expressing human CRTH2-Rluc and GFP^2-β-arr2. Prior to their use in the BRET assay cells were detached and re-suspended in D-PBS with 1000 mg/L L-Glucose at a density of 2×10^6 cells/mL. DeepBlueC™ was diluted to 50 μM in D-PBS with 1000 mg/L L-Glucose (light sensitive). 100 μL of cell suspension was transferred to wells in a 96-well microplate (white OptiPlate) and placed in the Mithras LB 940 instrument (BERTHOLD TECHNOLOGIES, Bad Wildbad, Germany). 12 μL/well agonist was then injected by injector 1 and 10 μL/well DeepBlueC™ was injected simultaneously by injector 2. Five seconds after the injections the light output from the well was measured sequentially at 400 nm and 515 nm, and the BRET signal (mBRET ratio) was calculated by the ratio of the fluorescence emitted by GFP^2-β-arr2 (515 nm) over the light emitted by the receptor-Rluc (400 nm). Antagonists were added before placing the microplates into the Mithras LB 940 and allowed to incubate for 15 minutes prior to the addition of agonist and DeepBlueC™. Compounds were dissolved in DMSO and the final DMSO concentration was kept constant at 1% in the assay.
# (§3) Curve analysis was performed with the GraphPadPrism software 3.0 (Graphpad Prism Inc., San Diego, USA) and IC50 values were calculated as a measure of the antagonistic potencies.
# human CRTH2 [2] = target: T1, human CRTH2; test: Receptor binding assay: [3H]PGD2 competition binding on whole COS-7 cells transiently transfected with CRTH2 (also stable HEK293 cells); parameters: expressed in transfected cells; host or cells: COS-7 (transient, calcium phosphate); details: competition with 0.1 nM [3H]PGD2, whole cells, 3 h at 4° C.
# Source text: as §1, §2
# Binding assay. 24 h after transfection COS-7 cells were seeded into 96 well plates at a density of 30.000 cells/well. Competition binding experiments on whole cells were then performed about 18-24 h later using 0.1 nM [^3H]PGD2 (NEN, 172 Ci/mmol) in a binding buffer consisting of HBSS (GIBCO) and 10 mM HEPES. Competing ligands were diluted in DMSO which was kept constant at 1% (v/v) of the final incubation volume. Total and nonspecific binding were determined in the absence and presence of 10 μM PGD2. Binding reactions were routinely conducted for 3 h at 4° C. and terminated by 2 washes (100 μl each) with ice cold binding buffer. Radioactivity was determined by liquid scintillation counting in a TOPCOUNTER (Packard) following over night incubation in Microscint 20. Stable HEK293 cells were seeded at a density of 30.000 cells/well 18-24 h prior to the binding assay which was performed essentially as described for COS7 cells above. Determinations were made in duplicates.
# as §3
Structure (SMILES),IC50 (human CRTH2 [1]),IC50 (human CRTH2 [2])
"CC(Oc1ccc(Br)cc1C(=O)c1cnn(-c2ccccc2)c1)C(=O)O (racemic) [D37, 2-[4-Bromo-2-(1-phenyl-1H-pyrazole-4-carbonyl)phenoxy]propionic acid]",< 500 nM,< 500 nM
"C[C@H](Oc1ccc(Br)cc1C(=O)c1cnn(-c2ccccc2)c1)C(=O)O [(S)-D37, 2(S)-[4-Bromo-2-(1-phenyl-1H-pyrazole-4-carbonyl)-phenoxy]-propionic acid]",< 500 nM,< 500 nM
"O=C(O)COc1ccccc1C(=O)c1cnn(-c2ccccc2)c1 [D2, 2-(1-Phenyl-1H-pyrazole-4-carbonyl)phenoxyacetic acid]",500 to 5000 nM,< 500 nM
"O=C(O)COc1ccc(F)cc1C(=O)c1cnn(-c2ccccc2)c1 [D3, 4-Fluoro-2-(1-phenyl-1H-pyrazole-4-carbonyl)phenoxyacetic acid]",500 to 5000 nM,< 500 nM
"O=C(O)COc1ccc(-c2ccccc2)cc1C(=O)c1cnn(-c2ccccc2)c1 [D5, 3-(1-Phenyl-1H-pyrazole-4-carbonyl)biphenyl-4-yloxyacetic acid]",< 500 nM,< 500 nM
"O=C(O)COc1ccc(-c2cc(F)cc(F)c2)cc1C(=O)c1cnn(-c2ccccc2)c1 [D8, [3′,5′-Difluoro-3-(1-phenyl-1H-pyrazole-4-carbonyl)biphenyl-4-yloxy]acetic acid]",500 to 5000 nM,< 500 nM
"O=C(O)COc1ccc(-c2ccc(Cl)cc2)cc1C(=O)c1cnn(-c2ccccc2)c1 [D9, [4′-Chloro-3-(1-phenyl-1H-pyrazole-4-carbonyl)biphenyl-4-yloxy]acetic acid]",< 500 nM,< 500 nM
"O=C(O)COc1ccc(Br)cc1C(=O)c1cc(-c2c(Cl)cccc2Cl)no1 [D98, {4-Bromo-2-[3-(2,6-dichloro-phenyl)isoxazole-5-carbonyl]phenoxy}acetic acid]",–,< 500 nM

# Further lines, results first:
IC50 (human CRTH2 [1]),IC50 (human CRTH2 [2]),Structure (SMILES)
< 500 nM,< 500 nM,"O=C(O)COc1ccc(Br)cc1C(=O)c1cnn(-c2ccccc2)c1 [D1, 4-Bromo-2-(1-phenyl-1H-pyrazole-4-carbonyl)phenoxyacetic acid]"
> 5000 nM,< 500 nM,"O=C(c1cnn(-c2ccccc2)c1)c1cc(Br)ccc1OCc1nn[nH]n1 [D4, [5-Bromo-2-(2H-tetrazol-5-ylmethoxy)phenyl](1-phenyl-1H-pyrazol-4-yl)ketone]"
< 500 nM,< 500 nM,"O=C(O)COc1ccc(Br)cc1C(=O)c1cnn(-c2ccccn2)c1 [D6, 4-Bromo-2-(1-pyridin-2-yl-1H-pyrazole-4-carbonyl)phenoxyacetic acid]"
< 500 nM,< 500 nM,"COc1ccc(-n2cc(C(=O)c3cc(Br)ccc3OCC(=O)O)cn2)cc1 [D7, 4-Bromo-2-[1-(4-methoxyphenyl)-1H-pyrazole-4-carbonyl]phenoxyacetic acid]"
500 to 5000 nM,< 500 nM,"O=C(O)COc1ccc(Cl)cc1C(=O)c1cnn(-c2ccccc2)c1 [D10, [4-Chloro-2-(1-phenyl-1H-pyrazole-4-carbonyl)phenoxy]acetic acid]"
500 to 5000 nM,< 500 nM,"Cc1ccc(OCC(=O)O)c(C(=O)c2cnn(-c3ccccc3)c2)c1 [D11, [4-Methyl-2-(1-phenyl-1H-pyrazole-4-carbonyl)phenoxy]acetic acid]"
> 5000 nM,> 5000 nM,"O=C(O)COc1c(Cl)cc(Cl)cc1C(=O)c1cnn(-c2ccccc2)c1 [D13, [2,4-Dichloro-6-(1-phenyl-1H-pyrazole-4-carbonyl)phenoxy]acetic acid]"
< 500 nM,> 5000 nM,"O=C(O)COc1ccc(Br)cc1C(=O)c1cnn(-c2ccccc2Cl)c1 [D14, 4-Bromo-2-[1-(2-chloro-phenyl)-1H-pyrazole-4-carbonyl]phenoxyacetic acid]"
< 500 nM,< 500 nM,"O=C(O)COc1ccc(Br)cc1C(=O)c1cnn(-c2cccc(Cl)c2)c1 [D15, 4-Bromo-2-[1-(3-chloro-phenyl)-1H-pyrazole-4-carbonyl]phenoxyacetic acid]"
